The test has as its target T1, hQ23 (HEK-293 cell line stably transfected with one of the members of the KCNQ family) (Homo sapiens, UniProt O43525+O43526).
T1 construct: expressed in transfected cells; host or cells: HEK-293, stably transfected
Put plainly: Thallium flux assay for KCNQ channel blockers (FLIPR, BTC dye). Format: cell-based. The gist of the method: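 HEK-293 cells stably expressing a KCNQ member, loaded with BTC-AM (2 μM) in chloride-free buffer, pH 7.3; compounds added at 1% DMSO, then Tl2SO4 stimulus on FLIPR (488/540 nm, 60 s). Minimal active concentration set at ≥4 SD above negative control; IC50 from 10-point 1:3 series, single-site logistic fit versus the positive-control blocker.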

The mark [1] stands for this setting: hQ23 cells, thallium flux assay.
Where [2] appears, read: Table 3, thallium flux, HEK-293.

SMILES strings stand for the structures.

T1 sequence (O43526 whole entry): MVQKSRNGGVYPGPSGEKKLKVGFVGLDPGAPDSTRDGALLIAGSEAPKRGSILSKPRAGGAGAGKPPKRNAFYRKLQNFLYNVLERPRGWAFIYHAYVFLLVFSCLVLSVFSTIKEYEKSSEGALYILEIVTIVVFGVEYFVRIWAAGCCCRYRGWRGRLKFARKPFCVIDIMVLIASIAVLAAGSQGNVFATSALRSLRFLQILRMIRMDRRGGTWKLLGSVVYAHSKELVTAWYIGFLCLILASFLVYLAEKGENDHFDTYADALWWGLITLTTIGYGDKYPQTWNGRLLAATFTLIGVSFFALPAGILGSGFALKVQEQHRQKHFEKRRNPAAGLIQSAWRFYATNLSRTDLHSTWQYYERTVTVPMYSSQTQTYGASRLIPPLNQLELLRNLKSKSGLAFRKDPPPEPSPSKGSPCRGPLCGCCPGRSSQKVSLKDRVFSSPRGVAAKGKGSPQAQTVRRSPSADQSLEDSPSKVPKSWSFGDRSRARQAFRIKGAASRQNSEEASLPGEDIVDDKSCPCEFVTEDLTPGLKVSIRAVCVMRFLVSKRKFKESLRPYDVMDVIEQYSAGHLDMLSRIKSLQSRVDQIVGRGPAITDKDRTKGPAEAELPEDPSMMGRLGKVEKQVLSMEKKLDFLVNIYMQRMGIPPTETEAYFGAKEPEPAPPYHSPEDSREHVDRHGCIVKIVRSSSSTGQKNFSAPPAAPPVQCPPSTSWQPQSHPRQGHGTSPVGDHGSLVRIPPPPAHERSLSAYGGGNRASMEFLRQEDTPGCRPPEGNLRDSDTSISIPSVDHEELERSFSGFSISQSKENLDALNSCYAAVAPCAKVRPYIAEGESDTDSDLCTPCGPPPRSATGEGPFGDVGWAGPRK
T1 sequence (O43525 whole entry): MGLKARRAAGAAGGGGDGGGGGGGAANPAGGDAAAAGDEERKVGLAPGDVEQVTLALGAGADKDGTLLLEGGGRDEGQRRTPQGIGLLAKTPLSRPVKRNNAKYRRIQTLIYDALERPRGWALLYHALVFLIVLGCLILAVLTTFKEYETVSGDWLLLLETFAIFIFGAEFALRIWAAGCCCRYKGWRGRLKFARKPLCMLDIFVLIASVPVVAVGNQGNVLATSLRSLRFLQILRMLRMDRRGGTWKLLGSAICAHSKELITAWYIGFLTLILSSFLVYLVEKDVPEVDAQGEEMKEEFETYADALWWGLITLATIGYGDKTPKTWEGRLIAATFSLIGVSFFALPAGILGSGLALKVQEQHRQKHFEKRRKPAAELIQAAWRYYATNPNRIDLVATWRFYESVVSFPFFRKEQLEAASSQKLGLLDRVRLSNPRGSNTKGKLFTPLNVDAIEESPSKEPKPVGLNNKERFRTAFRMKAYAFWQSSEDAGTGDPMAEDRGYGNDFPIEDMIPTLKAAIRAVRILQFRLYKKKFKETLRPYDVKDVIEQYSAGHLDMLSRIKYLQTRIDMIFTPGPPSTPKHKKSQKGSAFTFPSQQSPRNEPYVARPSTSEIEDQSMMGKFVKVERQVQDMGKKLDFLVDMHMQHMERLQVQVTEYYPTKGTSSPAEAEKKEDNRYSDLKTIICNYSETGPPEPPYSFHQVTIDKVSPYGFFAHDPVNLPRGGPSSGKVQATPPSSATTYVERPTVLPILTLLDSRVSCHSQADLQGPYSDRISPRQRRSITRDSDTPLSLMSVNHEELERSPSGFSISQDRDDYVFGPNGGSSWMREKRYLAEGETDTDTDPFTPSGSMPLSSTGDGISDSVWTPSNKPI

Turning to `CCC(C)Nc1ncc(C(=O)NC(C)c2ccc(F)cc2)c(C2(c3ccc(F)cc3)CCCC2)n1` (stereo not drawn) [Example 286, 5-pyrimidinecarboxamide, 4-[1-(4-fluorophenyl)cyclopentyl]-N-[1-(4-fluorophenyl)ethyl]-2-[(1-methylpropyl)amino]-], the response under setting [1] was half-maximal at 0.852 µM (EC50).

Turning to `CCC(C)Nc1ncc(C(=O)NCc2ccc(F)cc2F)c(C2(c3ccccc3)CCCC2)n1` (stereo not drawn) [Example 120, 5-pyrimidinecarboxamide, N-[(2,4-difluorophenyl)methyl]-2-[(1-methylpropyl)amino]-4-(1-phenylcyclopentyl)-], the EC50 (in general, the concentration at which the effect is half-maximal) (hQ23 cells, thallium flux) came out at 0.062 µM.

`CCC(C)Nc1ncc(C(=O)NCc2cc(F)cc(C(F)(F)F)c2)c(C2(c3ccccc3)CCCC2)n1` (stereo not drawn) [Example 128, 5-pyrimidinecarboxamide, N-[[3-fluoro-5-(trifluoromethyl)phenyl]methyl]-2-[(1-methylpropyl)amino]-4-(1-phenylcyclopentyl)-] yielded an EC50 (hQ23 cells, thallium flux) of 0.01 µM.

With `CCN(C(=O)c1cnc(N2CCCC(C)C2)nc1C1(c2ccc(F)cc2)CCCC1)C1CCCCC1` (stereo not drawn) [Example 214, 5-pyrimidinecarboxamide, N-cyclohexyl-N-ethyl-4-[1-(4-fluorophenyl)cyclopentyl]-2-(3-methyl-1-piperidinyl)-], the EC50 (hQ23 cells, thallium flux) turned out to be 0.575 µM. This EC50 lies about 57-fold higher than the previous one.

`CC1CCCN(c2ncc(C(=O)NCc3cc(F)cc(C(F)(F)F)c3)c(C3(c4ccc(F)cc4)CCCC3)n2)C1` (stereo not drawn) [Example 277, 5-pyrimidinecarboxamide, 4-[1-(4-fluorophenyl)cyclopentyl]-N-[[3-fluoro-5-(trifluoromethyl)phenyl]methyl]-2-(3-methyl-1-piperidinyl)-] had an EC50 under setting [1] of 0.022 µM.

Turning to `O=C(NCc1ccc2c(c1)OCO2)c1cnc(NC2CC2)nc1C1(c2ccc(Cl)cc2)CCCC1` [Example 150, 5-pyrimidinecarboxamide, N-(1,3-benzodioxol-5-ylmethyl)-4-[1-(4-chlorophenyl)cyclopentyl]-2-(cyclopropylamino)-], the EC50 (hQ23 cells, thallium flux) worked out at 0.717 µM.

As to `O=C(NCc1ccc(F)cc1F)c1cnc(NC2CCCC2)nc1C1(c2ccc(Cl)cc2)CCCC1` [Example 189, 5-pyrimidinecarboxamide, 4-[1-(4-chlorophenyl)cyclopentyl]-2-(cyclopentylamino)-N-[(2,4-difluorophenyl)methyl]-], a half-maximal response (hQ23 cells, thallium flux) (EC50) required 0.34 µM.

`CCC(C)Nc1ncc(C(=O)NCc2cccc3ccccc23)c(C2(c3ccccc3)CCCC2)n1` (stereo not drawn) [Example 105, 5-pyrimidinecarboxamide, 2-[(1-methylpropyl)amino]-N-(1-naphthalenylmethyl)-4-(1-phenylcyclopentyl)-] gave an EC50 (hQ23 cells, thallium flux) of 0.604 µM. Against the preceding molecule, the EC50 is about 1.8-fold higher.

`CCN(Cc1ccccc1)C(=O)c1cnc(NC2CCCC2)nc1C1(c2ccccc2)CCCC1` [Example 88, 5-pyrimidinecarboxamide, 2-(cyclopentylamino)-N-ethyl-4-(1-phenylcyclopentyl)-N-(phenylmethyl)-] had an EC50 (hQ23 cells, thallium flux) of 0.926 µM. Against the preceding molecule, the EC50 is about 1.5-fold higher.

Turning to `CC1CCCN(c2ncc(C(=O)NCc3ccc(Cl)cc3Cl)c(C3(c4ccc(Cl)cc4)CCC3)n2)C1` (stereo not drawn) [Example 63, 5-pyrimidinecarboxamide, 4-[1-(4-chlorophenyl)cyclobutyl]-N-[(2,4-dichlorophenyl)methyl]-2-(3-methyl-1-piperidinyl)-], a half-maximal effect under setting [2] (EC50) was put at 0.014 µM. In other words, the double-digit nanomolar range.

For `CC1CCCN(c2ncc(C(=O)N(C)Cc3ccccc3)c(C3(c4ccc(F)cc4)CCCC3)n2)C1` (stereo not drawn) [Example 205, 5-pyrimidinecarboxamide, 4-[1-(4-fluorophenyl)cyclopentyl]-N-methyl-2-(3-methyl-1-piperidinyl)-N-(phenylmethyl)-], for the setting “hQ23 cells, thallium flux”, a half-maximal response (EC50) required 0.116 µM.

For the setting “hQ23 cells, thallium flux”, `CN(CCc1ccccc1)C(=O)c1cnc(N2CCCC2)nc1C1(c2ccc(F)cc2)CCCC1` [Example 220, 5-pyrimidinecarboxamide, 4-[1-(4-fluorophenyl)cyclopentyl]-N-methyl-N-(2-phenylethyl)-2-(1-pyrrolidinyl)-] came in with an EC50 of 0.169 µM.

Where the note is “hQ23 cells, thallium flux”, `CC1CCCN(c2ncc(C(=O)NCc3cccc4ccccc34)c(C3(c4ccc(Cl)cc4)CCCC3)n2)C1` (stereo not drawn) [Example 169, 5-pyrimidinecarboxamide, 4-[1-(4-chlorophenyl)cyclopentyl]-2-(3-methyl-1-piperidinyl)-N-(1-naphthalenylmethyl)-] showed an EC50 of 0.01 µM.

`O=C(NCc1cccc2ccccc12)c1cnc(NC2CC2)nc1C1(c2ccccc2)CCCC1` [Example 101, 5-pyrimidinecarboxamide, 2-(cyclopropylamino)-N-(1-naphthalenylmethyl)-4-(1-phenylcyclopentyl)-] showed an EC50 (hQ23 cells, thallium flux) of 0.669 µM.

Take `CC1CCN(c2ncc(C(=O)NCc3cccc4ccccc34)c(C3(c4ccccc4)CC3)n2)CC1` [Example 38, 5-pyrimidinecarboxamide, 2-(4-methyl-1-piperidinyl)-N-(1-naphthalenylmethyl)-4-(1-phenylcyclopropyl)-]: where the note is “Table 2, thallium flux, HEK-293”, the EC50 turned out to be 0.381 µM.

Consider `O=C(NCc1ccc(F)cc1F)c1cnc(N2CCCC2)nc1C1(c2ccccc2)CCCC1` [Example 117, 5-pyrimidinecarboxamide, N-[(2,4-difluorophenyl)methyl]-4-(1-phenylcyclopentyl)-2-(1-pyrrolidinyl)-], for which the EC50 (hQ23 cells, thallium flux) turned out to be 0.127 µM.

`CN1CCN(c2ncc(C(=O)NCc3cccc4ccccc34)c(C3(c4ccc(Cl)cc4)CCCC3)n2)CC1` [Example 168, 5-pyrimidinecarboxamide, 4-[1-(4-chlorophenyl)cyclopentyl]-2-(4-methyl-1-piperazinyl)-N-(1-naphthalenylmethyl)-] gave an EC50 (hQ23 cells, thallium flux) of 0.497 µM.

As for `CC1CCN(c2ncc(C(=O)NCc3ccc4c(c3)OCO4)c(C3(c4ccc(F)cc4)CCCC3)n2)CC1` [Example 237, 5-pyrimidinecarboxamide, N-(1,3-benzodioxol-5-ylmethyl)-4-[1-(4-fluorophenyl)cyclopentyl]-2-(4-methyl-1-piperidinyl)-], the EC50 under setting [1] stood at 0.54 µM.

Take `CCC(C)Nc1ncc(C(=O)N(CC)Cc2ccccc2)c(C2(c3ccccc3)CCCC2)n1` (stereo not drawn) [Example 87, 5-pyrimidinecarboxamide, N-ethyl-2-[(1-methylpropyl)amino]-4-(1-phenylcyclopentyl)-N-(phenylmethyl)-]: a half-maximal effect (hQ23 cells, thallium flux) (EC50) was put at 0.851 µM. In other words, the sub-micromolar range.

`CN1CCC(N(C)c2ncc(C(=O)NCc3ccc(Cl)cc3Cl)c(C3(c4ccc(Cl)cc4)CCCC3)n2)CC1` [Example 182, 5-pyrimidinecarboxamide, 4-[1-(4-chlorophenyl)cyclopentyl]-N-[(2,4-dichlorophenyl)methyl]-2-[methyl(1-methyl-4-piperidinyl)amino]-] yielded an EC50 (hQ23 cells, thallium flux) of 0.067 µM. Against the preceding molecule, the EC50 is about 13-fold lower.

`O=C(NCc1cccc2ccccc12)c1cnc(N2CCCC2)nc1C1(c2ccc(Cl)cc2)CCC1` [Example 61, 5-pyrimidinecarboxamide, 4-[1-(4-chlorophenyl)cyclobutyl]-N-(1-naphthalenylmethyl)-2-(1-pyrrolidinyl)-] displayed an EC50 under setting [2] of 0.079 µM.

For the molecule `CCN(Cc1ccccc1)C(=O)c1cnc(NC2CCC(C)CC2)nc1C1(c2ccc(F)cc2)CCCC1` (stereo not drawn) [Example 228, 5-pyrimidinecarboxamide, N-ethyl-4-[1-(4-fluorophenyl)cyclopentyl]-2-[(4-methylcyclohexyl)amino]-N-(phenylmethyl)-], the EC50 (hQ23 cells, thallium flux) was 0.637 µM.

For `CC1CCCN(c2ncc(C(=O)NCc3ccc(Cl)cc3Cl)c(C3(c4ccc(Cl)cc4)CCCC3)n2)C1` (stereo not drawn) [Example 180, 5-pyrimidinecarboxamide, 4-[1-(4-chlorophenyl)cyclopentyl]-N-[(2,4-dichlorophenyl)methyl]-2-(3-methyl-1-piperidinyl)-], the EC50 (hQ23 cells, thallium flux) was determined as 0.01 µM.

`CC1CCC(Nc2ncc(C(=O)NCc3ccc4c(c3)OCO4)c(C3(c4ccc(F)cc4)CCCC3)n2)CC1` (stereo not drawn) [Example 234, 5-pyrimidinecarboxamide, N-(1,3-benzodioxol-5-ylmethyl)-4-[1-(4-fluorophenyl)cyclopentyl]-2-[(4-methylcyclohexyl)amino]-] returned an EC50 under setting [1] of 0.235 µM.

`CC1CCCN(c2ncc(C(=O)NCc3cccc4ccccc34)c(C3(c4ccc(Cl)cc4)CCC3)n2)C1` (stereo not drawn) [Example 62, 5-pyrimidinecarboxamide, 4-[1-(4-chlorophenyl)cyclobutyl]-2-(3-methyl-1-piperidinyl)-N-(1-naphthalenylmethyl)-] registered an EC50 under setting [2] of 0.039 µM.

Regarding `CC1CCCN(c2ncc(C(=O)N3CCc4ccccc4C3)c(C3(c4ccc(F)cc4)CCCC3)n2)C1` (stereo not drawn) [Example 211, isoquinoline, 2-[[4-[1-(4-fluorophenyl)cyclopentyl]-2-(3-methyl-1-piperidinyl)-5-pyrimidinyl]carbonyl]-1,2,3,4-tetrahydro-], a half-maximal effect (hQ23 cells, thallium flux) (EC50) was put at 0.272 µM.

Consider `CC1CCC(Nc2ncc(C(=O)NCc3cc(F)cc(C(F)(F)F)c3)c(C3(c4ccccc4)CCCC3)n2)CC1` (stereo not drawn) [Example 123, 5-pyrimidinecarboxamide, N-[[3-fluoro-5-(trifluoromethyl)phenyl]methyl]-2-[(4-methylcyclohexyl)amino]-4-(1-phenylcyclopentyl)-], for which it took 0.01 µM to reach a half-maximal effect (hQ23 cells, thallium flux) (EC50).

As to `CCN(C)C(=O)c1cnc(N2CCCC(C)C2)nc1C1(c2ccc(F)cc2)CCCC1` (stereo not drawn) [Example 226, 5-pyrimidinecarboxamide, N-ethyl-4-[1-(4-fluorophenyl)cyclopentyl]-N-methyl-2-(3-methyl-1-piperidinyl)-], where the note is “hQ23 cells, thallium flux”, the EC50 turned out to be 0.505 µM.

As for `O=C(NCc1ccc(Cl)cc1Cl)c1cnc(NC2CCCC2)nc1C1(c2ccc(Cl)cc2)CCCC1` [Example 185, 5-pyrimidinecarboxamide, 4-[1-(4-chlorophenyl)cyclopentyl]-2-(cyclopentylamino)-N-[(2,4-dichlorophenyl)methyl]-], where the note is “hQ23 cells, thallium flux”, the EC50 stood at 0.01 µM.

Regarding `CN(C)CCNc1ncc(C(=O)NCc2ccc(Cl)cc2Cl)c(C2(c3ccc(Cl)cc3)CCCC2)n1` [Example 184, 5-pyrimidinecarboxamide, 4-[1-(4-chlorophenyl)cyclopentyl]-N-[(2,4-dichlorophenyl)methyl]-2-[[2-(dimethylamino)ethyl]amino]-], under “hQ23 cells, thallium flux”, the midpoint of the response, the EC50, lay at 0.709 µM.

Values taken from patent US7091202B2, “4-arylspirocycloalkyl-2-aminopyrimidine carboxamide KCNQ potassium channel modulators” (Bristol-Myers Squibb Company, priority 2004, dated 2006).
